The results in this text go back to patent publication US10098878B2, “HIF-2α inhibitors for treating iron overload disorders” (The Board of Regents of the University of Texas System, priority 2014, dated 2018).

SMILES strings stand for the structures.

The test system of one test is 786-O-Hif-Luc cells. Description: Luciferase Assay. Format: cell-based. The following applies: 786-O-Hif-Luc cells; about 24 hours; read-out: Luciferase EC50. The protocol: A pool of infected cells were then selected against 2 μg/mL of puromycin (P8833, Sigma) for 10 days followed by limited dilution to select single clones.
Each concentration was tested in triplicate. After about 24 hours, luciferase activity was determined using ONE-Glo Luciferase Assay Reagent (E6110, Promega) following the manufacturer's recommended procedure. EC50 were calculated by using Dotmatics software.
Usually EC50 stands for the concentration needed to bring the measured effect to its halfway point. For `N#Cc1cc(F)cc(Oc2ccc3c(c2C(F)F)[C@@H](O)C(F)(F)S3(=O)=O)c1` (single isomer, unassigned) [Compound 113], the EC50 was 0.007 µM.

Staying with this test, now noted: 24 h, 786-O-Hif-Luc cells; about 24 hours; read-out: Luciferase EC50.
In the case of `N#Cc1cc(F)cc(Oc2ccc(S(=O)(=O)C(F)F)c3c2CC(F)(F)[C@H]3O)c1` [Compound 1, 3-[(1S)-7-(difluoromethylsulfonyl)-2,2-difluoro-1-hydroxy-indan-4-yl]oxy-5-fluoro-benzonitrile], the EC50 stood at 0.007 µM. For the compound `Cn1cc(Oc2ccc(S(=O)(=O)C(F)(F)F)c3c2CC(F)(F)[C@H]3O)cn1` [Compound 13, (S)-2,2-Difluoro-4-((1-methyl-1H-pyrazol-4-yl)oxy)-7-((trifluoromethyl)sulfonyl)-2,3-dihydro-1H-inden-1-ol], the EC50 came out at 0.177 µM. Regarding `N#Cc1cc(F)cc(Oc2ccc(S(=O)(=O)C(F)(F)F)c3c2C[C@@H](F)[C@H]3O)c1` [Compound 15, 3-Fluoro-5-(((1S,2R)-2-fluoro-1-hydroxy-7-((trifluoromethyl)sulfonyl)-2,3-dihydro-1H-inden-4-yl)oxy)benzonitrile], the concentration for a half-maximal effect (EC50) amounted to 0.003 µM. For the compound `O=S(=O)(c1ccc(Oc2ccc(F)c3[nH]ncc23)c2c1C(O)C(F)(F)C2)C(F)(F)F` (stereo not drawn) [Compound 21, 2,2-Difluoro-4-((7-fluoro-1H-indazol-4-yl)oxy)-7-((trifluoromethyl)sulfonyl)-2,3-dihydro-1H-inden-1-ol], the concentration for a half-maximal effect (EC50) was 0.137 µM.

On to `O=[N+]([O-])c1ccc(Oc2cc(F)cc(Cl)c2)c2c1C(O)CC2` (stereo not drawn) [Compound 27, 4-(3-Chloro-5-fluorophenoxy)-7-nitro-2,3-dihydro-1H-inden-1-ol], for which the 50% effective concentration (EC50) was found to be 1.39 µM.

Still in this test, the particulars now being: 24 h, read-out: Luciferase EC50.
Regarding `CS(=O)(=O)c1ccc(Oc2cc(F)cc(C#N)c2)c2c1[C@H](O)C(F)(F)C2` [Compound 5, (S)-3-((2,2-Difluoro-1-hydroxy-7-(methylsulfonyl)-2,3-dihydro-1H-inden-4-yl)oxy)-5-fluorobenzonitrile], the EC50 amounted to 0.024 µM. Same read-out and setting: for `CS(=O)(=O)c1ccc(Oc2cc(F)cc(C#N)c2)c2c1[C@H](N)C(F)(F)C2` [Compound 6, 3-[(1S)-1-Amino-2,2-difluoro-7-methylsulfonyl-indan-4-yl]oxy-5-fluoro-benzonitrile] the value was 0.244 µM; for `[2H]C([2H])([2H])S(=O)(=O)c1ccc(Oc2cc(F)cc(C#N)c2)c2c1[C@]([2H])(O)C(F)(F)C2` [Compound 16, 3-[(1S)-1-Deuterio-2,2-difluoro-1-hydroxy-7-(trideuteriomethylsulfonyl)indan-4-yl]oxy-5-fluoro-benzonitrile], 0.024 µM. `CS(=O)(=O)c1ccc(Oc2cc(F)cc(C#N)c2)c2c1[C@H](O)[C@H](F)C2` [Compound 17, 3-Fluoro-5-(((1S,2R)-2-fluoro-1-hydroxy-7-(methylsulfonyl)-2,3-dihydro-1H-inden-4-yl)oxy)benzonitrile]: the EC50 is 0.036 µM. With `N#Cc1cncc(Oc2ccc(S(=O)(=O)C(F)(F)F)c3c2CC(F)(F)[C@H]3O)c1` [Compound 18, (S)-5-((2,2-Difluoro-1-hydroxy-7-((trifluoromethyl)sulfonyl)-2,3-dihydro-1H-inden-4-yl)oxy)nicotinonitrile], the EC50 is 0.015 µM. `[2H][C@]1(O)c2c(S(C)(=O)=O)ccc(Oc3cc(F)cc(C#N)c3)c2CC1(F)F` [Compound 23, (S)-3-((2,2-Difluoro-1-hydroxy-7-(methylsulfonyl)-2,3-dihydro-1H-inden-4-yl-1-d)oxy)-5-fluorobenzonitrile]: the EC50 stood at 0.024 µM. On to `CNS(=O)(=O)c1ccc(Oc2cc(F)cc(C#N)c2)c2c1[C@H](O)C(F)(F)C2` [Compound 26, (S)-7-(3-Cyano-5-fluorophenoxy)-2,2-difluoro-3-hydroxy-N-methyl-2,3-dihydro-1H-indene-4-sulfonamide], for which the concentration for a half-maximal effect (EC50) is 0.119 µM.

As to `CS(=O)(=O)c1ccc(Oc2cc(F)cc(C#N)c2)c2c1[C@H](O)[C@@H](F)C2` [Compound 35, 3-fluoro-5-(((1S,2S)-2-fluoro-1-hydroxy-7-(methylsulfonyl)-2,3-dihydro-1H-inden-4-yl)oxy)benzonitrile], the EC50 amounted to 0.473 µM.

Staying with this test, now noted: read-out: Luciferase EC50.
For `N#Cc1cc(F)cc(Oc2ccc3c(c2C(F)F)[C@H](O)C(F)(F)S3(=O)=O)c1` (single isomer, unassigned) [Compound 144], the EC50 is 0.019 µM.

The target of a further test is T1, HIF-2α HIS TAG-PASB Domain (Homo sapiens, UniProt Q99814).
T1 construct: 100 nM HIF-2α HIS TAG-PASB Domain
T1 sequence (Q99814 240-350 limits assumed): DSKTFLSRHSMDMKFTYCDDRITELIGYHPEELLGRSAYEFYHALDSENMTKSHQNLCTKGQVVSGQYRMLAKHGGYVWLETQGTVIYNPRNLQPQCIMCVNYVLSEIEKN
The experiment in a line: HIF-2α Scintillation Proximity Assay (SPA). The following applies: 150 nM Compound 211 probe, 100 nM HIF-2α HIS TAG-PASB Domain; read-out: SPA IC50. Format: binding. The protocol: The total assay volume was about 100 μL in the following configuration: 2 μL compound in 100% DMSO, 88 μL buffer with protein and probe and 10 μL of SPA beads. […] The percent inhibition was determined and IC50 values were calculated using the Dotmatics system based on the following equation: % inhibition=[(high control−sample)/(high control−low control)]×100.
On the technique in general: Scintillation proximity formats need no separation of bound from free tracer.
What is called IC50 is the concentration that inhibits the measured activity by half. As for `N#CN=S1(=O)CC(O)c2c1ccc(Oc1cc(F)cc(F)c1)c2C(F)F` (stereo not drawn) [Compound 159, N-(4-(difluoromethyl)-5-(3,5-difluorophenoxy)-3-hydroxy-1-oxido-2,3-dihydro-1λ^4-benzo[b]thiophen-1-ylidene)cyanamide], the IC50 was 17.4 µM. `N=S1(=O)CC(O)c2c1ccc(Oc1cc(F)cc(F)c1)c2C(F)F` (stereo not drawn) [Compound 160, 4-(Difluoromethyl)-5-(3,5-difluorophenoxy)-3-hydroxy-1-imino-2,3-dihydro-1H-1λ^4-benzo[b]thiophene 1-oxide]: the IC50 came to 14.2 µM.

Regarding `O=C1c2c(ccc(Oc3cc(F)cc(Cl)c3)c2Br)S(=O)(=O)C12CC2` [Compound 168, 4-Bromo-5-(3-chloro-5-fluoro-phenoxy)-1,1-dioxo-spiro[benzothiophene-2,1′-cyclopropane]-3-one], the IC50 was 6.3 µM. Turning to `N#Cc1c(Oc2cc(F)cc(Cl)c2)ccc2c1[C@H](O)CS2(=O)=O` [Compound 171, (3S)-5-(3-Chloro-5-fluoro-phenoxy)-3-hydroxy-1,1-dioxo-2,3-dihydrobenzothiophene-4-carbonitrile], the 50% inhibitory concentration (IC50) is 12.9 µM. For `CC1(C)C(O)c2c(ccc(Oc3cc(F)cc(Cl)c3)c2C#N)S1(=O)=O` (stereo not drawn) [Compound 172, 5-(3-Chloro-5-fluoro-phenoxy)-3-hydroxy-2,2-dimethyl-1,1-dioxo-3H-benzothiophene-4-carbonitrile], the half-maximal inhibitory concentration (IC50) turned out to be 19.6 µM. Regarding `N#Cc1cc(F)cc(Oc2ccc3c(c2C#CCF)C(O)C(F)(F)S3(=O)=O)c1` (stereo not drawn) [Compound 174, 3-[[2,2-Difluoro-4-(3-fluoroprop-1-ynyl)-3-hydroxy-1,1-dioxo-3H-benzothiophen-5-yl]oxy]-5-fluoro-benzonitrile], the IC50 stood at 10.9 µM. As for `O=S1(=O)C[C@H](O)c2c1ccc(Oc1cc(F)cc(F)c1)c2Br` [Compound 177, (R)-4-bromo-5-(3,5-difluorophenoxy)-3-hydroxy-2,3-dihydrobenzo[b]thiophene 1,1-dioxide], the IC50 was 4.66 µM. On to `N#Cc1cc(F)cc(Oc2ccc3c(c2Br)[C@@H](O)CS3(=O)=O)c1` [Compound 179, (R)-3-((4-Bromo-3-hydroxy-1,1-dioxido-2,3-dihydrobenzo[b]thiophen-5-yl)oxy)-5-fluorobenzonitrile], for which the IC50 was found to be 13.4 µM. The same measure, in the same setting: for `O=C1CS(=O)(=O)c2ccc(Oc3cc(F)cc(F)c3)cc21` [Compound 181, 5-(3,5-Difluorophenoxy)benzo[b]thiophen-3(2H)-one 1,1-dioxide] the value was 17.6 µM; for `O=S1(=O)CC(O)c2c1ccc(Oc1cc(F)cc(F)c1)c2Br` (stereo not drawn) [Compound 182, 4-Bromo-5-(3,5-difluorophenoxy)-3-hydroxy-2,3-dihydrobenzo[b]thiophene 1,1-dioxide], 17.1 µM.

Regarding `O=S1(=O)C[C@H](O)c2c1ccc(Oc1cccc(F)c1)c2Br` [Compound 183, (R)-4-bromo-5-(3-fluorophenoxy)-3-hydroxy-2,3-dihydrobenzo[b]thiophene 1,1-dioxide], the IC50 was 13.7 µM. As for `N#Cc1cncc(Oc2ccc3c(c2Br)[C@@H](O)CS3(=O)=O)c1` [Compound 184, (R)-5-((4-bromo-3-hydroxy-1,1-dioxido-2,3-dihydrobenzo[b]thiophen-5-yl)oxy)nicotinonitrile], the IC50 is 10.2 µM.

As to `CC1(O)c2cc(Oc3cc(F)cc(F)c3)ccc2S(=O)(=O)C1(F)F` (stereo not drawn) [Compound 189, 5-(3,5-Difluorophenoxy)-2,2-difluoro-3-hydroxy-3-methyl-2,3-dihydrobenzo[b]thiophene 1,1-dioxide], the IC50 is 6.86 µM. Consider `COc1cncc(Oc2ccc3c(c2Br)[C@@H](O)C(F)(F)S3(=O)=O)c1` [Compound 193, (R)-4-bromo-2,2-difluoro-3-hydroxy-5-((5-methoxypyridin-3-yl)oxy)-2,3-dihydrobenzo[b]thiophene 1,1-dioxide], for which the IC50 is 14.3 µM.

For `CCOc1ccc2c(c1C(F)F)[C@@H](O)C(F)(F)S2(=O)=O` [Compound 202, (R)-4-(Difluoromethyl)-5-ethoxy-2,2-difluoro-3-hydroxy-2,3-dihydrobenzo[b]thiophene 1,1-dioxide], the IC50 was determined as 15.5 µM. Still for that read-out and setting: the same measure for `N#Cc1cc(F)cc(Oc2ccc3c(c2C(F)F)C(O)(C(F)(F)F)C(F)(F)S3(=O)=O)c1` (stereo not drawn) [Compound 209, 3-((4-(difluoromethyl)-2,2-difluoro-3-hydroxy-1,1-dioxido-3-(trifluoromethyl)-2,3-dihydrobenzo[b]thiophen-5-yl)oxy)-5-fluorobenzonitrile]: 4.4 µM.

Still in this test, the particulars now being: SPA IC50, 150 nM Compound 211 probe, 100 nM HIF-2α HIS TAG-PASB Domain.
`O=S1(=O)CCC(O)c2c1ccc(Oc1cc(F)cc(F)c1)c2C(F)F` (stereo not drawn) [Compound 166, 5-(Difluoromethyl)-6-(3,5-difluorophenoxy)-4-hydroxythiochromane 1,1-dioxide]: the 50% inhibitory concentration (IC50) is 4.1 µM. Still for that read-out and setting: for `CC1(C)C(O)c2c(ccc(Oc3cc(F)cc(Cl)c3)c2Br)S1(=O)=O` (stereo not drawn) [Compound 170, 4-Bromo-5-(3-chloro-5-fluoro-phenoxy)-2,2-dimethyl-1,1-dioxo-3H-benzothiophen-3-ol] the value was 21.9 µM.
